Results published in ChEMBL document CHEMBL1201862, “PubChem BioAssay data set” (2004).
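Interpolation was linear, between the two tested concentrations surrounding the appropriate level; five concentrations were tested over 48 hours in 96-well plates. GI50 marks 50% less growth.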 The source made the active and inactive calls. No stated cut-off is given here; in the data, active = GI50 up to about 1.1 µM and inactive = higher.

Legend:
Test in all cases: DTP human tumour cell line panel, 48 h
ACHN = system: ACHN
SNB-75 = system: SNB-75
HOP-92 = system: HOP-92
UACC-257 = system: UACC-257
786-0 = system: 786-0
MCF7 = system: MCF7
OVCAR-4 = system: OVCAR-4
OVCAR-5 = system: OVCAR-5
MDA-MB-435 = system: MDA-MB-435
NCI/ADR-RES = system: NCI/ADR-RES
UO-31 = system: UO-31
SK-MEL-28 = system: SK-MEL-28
KM12 = system: KM12
MDA-N = system: MDA-N
PC-3 = system: PC-3
BT-549 = system: BT-549
M14 = system: M14
SF-539 = system: SF-539
NCI-H522 = system: NCI-H522
HCC 2998 = system: HCC 2998

Structure (SMILES) | GI50 (ACHN) | GI50 (SNB-75) | GI50 (HOP-92) | GI50 (UACC-257) | GI50 (786-0) | GI50 (MCF7) | GI50 (OVCAR-4) | GI50 (OVCAR-5) | GI50 (MDA-MB-435) | GI50 (NCI/ADR-RES) | GI50 (UO-31) | GI50 (SK-MEL-28) | GI50 (KM12) | GI50 (MDA-N) | GI50 (PC-3) | GI50 (BT-549) | GI50 (M14) | GI50 (SF-539) | GI50 (NCI-H522) | GI50 (HCC 2998)
CC(C)c1ccc(C(O)(C(=O)O)c2ccc(C(C)C)cc2)cc1 | 40.2 µM (inactive) | 42.7 µM (inactive) | 31.8 µM (inactive) | > 100 µM (inactive) | 51.2 µM (inactive) | 53.7 µM (inactive) | 42.6 µM (inactive) | > 100 µM (inactive) | 95.7 µM (inactive) | 73.5 µM (inactive) | 35.3 µM (inactive) | 64.9 µM (inactive) | 39.6 µM (inactive) | 70 µM (inactive) | 31.6 µM (inactive) | 91.6 µM (inactive) | 63.5 µM (inactive) | > 100 µM (inactive) | 34 µM (inactive) | –
CN(C(=O)C1(C(=O)C=[N+]=[N-])CC1)c1ccccc1 | > 100 µM (inactive) | > 100 µM (inactive) | – | > 100 µM (inactive) | > 100 µM (inactive) | > 100 µM (inactive) | – | > 100 µM (inactive) | > 100 µM (inactive) | > 100 µM (inactive) | > 100 µM (inactive) | > 100 µM (inactive) | > 100 µM (inactive) | > 100 µM (inactive) | > 100 µM (inactive) | > 100 µM (inactive) | > 100 µM (inactive) | > 100 µM (inactive) | 83.6 µM (inactive) | > 100 µM (inactive)
CCOc1ncn(-c2ccc(NC(=S)Nc3cnccn3)cc2)n1 | > 10 µM (inactive) | > 10 µM (inactive) | > 10 µM (inactive) | > 10 µM (inactive) | > 10 µM (inactive) | > 10 µM (inactive) | > 10 µM (inactive) | > 10 µM (inactive) | > 10 µM (inactive) | > 10 µM (inactive) | > 10 µM (inactive) | – | > 10 µM (inactive) | > 10 µM (inactive) | – | > 10 µM (inactive) | > 10 µM (inactive) | > 10 µM (inactive) | > 10 µM (inactive) | –
COC(=O)C1C(O)C(C(=O)OC)C(C)N(C)C1C (stereo not drawn) | > 100 µM (inactive) | – | > 100 µM (inactive) | > 100 µM (inactive) | > 100 µM (inactive) | > 100 µM (inactive) | > 100 µM (inactive) | > 100 µM (inactive) | > 100 µM (inactive) | > 100 µM (inactive) | > 100 µM (inactive) | > 100 µM (inactive) | > 100 µM (inactive) | > 100 µM (inactive) | > 100 µM (inactive) | > 100 µM (inactive) | > 100 µM (inactive) | > 100 µM (inactive) | – | –
COC(=O)CC[N+]1=CCC(c2ccccc2)(c2ccccc2)O1 | > 100 µM (inactive) | – | > 100 µM (inactive) | > 100 µM (inactive) | > 100 µM (inactive) | > 100 µM (inactive) | > 100 µM (inactive) | > 100 µM (inactive) | 41.8 µM (inactive) | – | > 100 µM (inactive) | > 100 µM (inactive) | > 100 µM (inactive) | 18.5 µM (inactive) | > 100 µM (inactive) | > 100 µM (inactive) | > 100 µM (inactive) | > 100 µM (inactive) | > 100 µM (inactive) | > 100 µM (inactive)
COc1cccc(/C=C2\SC(=S)N(/C=C3\C(=O)Oc4ccccc4C3=O)C2=O)c1O | 46 µM (inactive) | 19.8 µM (inactive) | – | 68.2 µM (inactive) | 67.8 µM (inactive) | 39.4 µM (inactive) | 82.4 µM (inactive) | > 100 µM (inactive) | 24.7 µM (inactive) | 41 µM (inactive) | 22.3 µM (inactive) | 40.4 µM (inactive) | 45.8 µM (inactive) | 32.8 µM (inactive) | 51.8 µM (inactive) | 20 µM (inactive) | 39.4 µM (inactive) | 24.9 µM (inactive) | 33.3 µM (inactive) | 28.8 µM (inactive)
CN1B(c2ccccc2)N(C)C(=O)N(C)C1=O | > 100 µM (inactive) | 18.4 µM (inactive) | > 100 µM (inactive) | > 100 µM (inactive) | > 100 µM (inactive) | > 100 µM (inactive) | – | > 100 µM (inactive) | > 100 µM (inactive) | > 100 µM (inactive) | 20.5 µM (inactive) | – | > 100 µM (inactive) | > 100 µM (inactive) | > 100 µM (inactive) | > 100 µM (inactive) | > 100 µM (inactive) | > 100 µM (inactive) | – | –
Cc1ccc(OCC2OC(n3cnc4nc(Nc5ccc(Cl)c(Cl)c5)nc(Cl)c43)CC2Oc2ccc(C)cc2)cc1 (stereo not drawn) | > 100 µM (inactive) | > 100 µM (inactive) | – | > 100 µM (inactive) | > 100 µM (inactive) | > 100 µM (inactive) | > 100 µM (inactive) | > 100 µM (inactive) | > 100 µM (inactive) | > 100 µM (inactive) | > 100 µM (inactive) | > 100 µM (inactive) | > 100 µM (inactive) | > 100 µM (inactive) | > 100 µM (inactive) | > 100 µM (inactive) | > 100 µM (inactive) | – | – | > 100 µM (inactive)
O=C(O)c1ccc(Nc2nc3cc(C(F)(F)F)ccc3nc2C(=O)O)cc1 | > 100 µM (inactive) | > 100 µM (inactive) | – | – | > 100 µM (inactive) | > 100 µM (inactive) | > 100 µM (inactive) | > 100 µM (inactive) | > 100 µM (inactive) | > 100 µM (inactive) | > 100 µM (inactive) | > 100 µM (inactive) | > 100 µM (inactive) | > 100 µM (inactive) | > 100 µM (inactive) | > 100 µM (inactive) | – | – | > 100 µM (inactive) | > 100 µM (inactive)
COC(=O)CCCc1c(-c2[nH]c3ccccc3c2CCCC(=O)OC)[nH]c2ccccc12 | > 100 µM (inactive) | 13.6 µM (inactive) | > 100 µM (inactive) | > 100 µM (inactive) | > 100 µM (inactive) | – | – | > 100 µM (inactive) | > 100 µM (inactive) | > 100 µM (inactive) | > 100 µM (inactive) | > 100 µM (inactive) | > 100 µM (inactive) | > 100 µM (inactive) | > 100 µM (inactive) | > 100 µM (inactive) | > 100 µM (inactive) | > 100 µM (inactive) | > 100 µM (inactive) | –
CCOP(=O)(OCC)C(N)c1ccc(Cl)cc1 (stereo not drawn) | > 100 µM (inactive) | – | > 100 µM (inactive) | > 100 µM (inactive) | > 100 µM (inactive) | > 100 µM (inactive) | > 100 µM (inactive) | > 100 µM (inactive) | > 100 µM (inactive) | > 100 µM (inactive) | – | > 100 µM (inactive) | > 100 µM (inactive) | > 100 µM (inactive) | > 100 µM (inactive) | > 100 µM (inactive) | > 100 µM (inactive) | > 100 µM (inactive) | > 100 µM (inactive) | –
Cc1ccc(O)c(-c2cc(-c3cccc(Br)c3)c(C#N)c(N)n2)c1 | 18.2 µM (inactive) | – | – | 20.8 µM (inactive) | 34.4 µM (inactive) | 16.3 µM (inactive) | < 0.01 µM (active) | 41.5 µM (inactive) | 16.3 µM (inactive) | 45.9 µM (inactive) | 20.4 µM (inactive) | – | 19.2 µM (inactive) | 24.1 µM (inactive) | 17.7 µM (inactive) | 37.2 µM (inactive) | 31.9 µM (inactive) | 29.1 µM (inactive) | 18.9 µM (inactive) | 23.3 µM (inactive)
